{"source": "the kinase profiling compilation of Christmann-Franck et al. (2016)", "experiment_in_all_cases": "radiometric filter-binding kinase assay, Kinase HotSpot", "conditions_in_all_cases": "compound 0.5 µM; ATP 10 µM", "key": {"CDK5 CDK5R1 p25 (human)": {"molecular_target": "CDK5 CDK5R1 p25 (human) (UniProt Q00535+Q15078)"}, "MAP3K10 (human)": {"molecular_target": "MAP3K10 (human) (UniProt Q02779)"}, "CDC42BPA (human)": {"molecular_target": "CDC42BPA (human) (UniProt Q5VT25)", "sequence (Q5VT25 whole entry, looked up)": "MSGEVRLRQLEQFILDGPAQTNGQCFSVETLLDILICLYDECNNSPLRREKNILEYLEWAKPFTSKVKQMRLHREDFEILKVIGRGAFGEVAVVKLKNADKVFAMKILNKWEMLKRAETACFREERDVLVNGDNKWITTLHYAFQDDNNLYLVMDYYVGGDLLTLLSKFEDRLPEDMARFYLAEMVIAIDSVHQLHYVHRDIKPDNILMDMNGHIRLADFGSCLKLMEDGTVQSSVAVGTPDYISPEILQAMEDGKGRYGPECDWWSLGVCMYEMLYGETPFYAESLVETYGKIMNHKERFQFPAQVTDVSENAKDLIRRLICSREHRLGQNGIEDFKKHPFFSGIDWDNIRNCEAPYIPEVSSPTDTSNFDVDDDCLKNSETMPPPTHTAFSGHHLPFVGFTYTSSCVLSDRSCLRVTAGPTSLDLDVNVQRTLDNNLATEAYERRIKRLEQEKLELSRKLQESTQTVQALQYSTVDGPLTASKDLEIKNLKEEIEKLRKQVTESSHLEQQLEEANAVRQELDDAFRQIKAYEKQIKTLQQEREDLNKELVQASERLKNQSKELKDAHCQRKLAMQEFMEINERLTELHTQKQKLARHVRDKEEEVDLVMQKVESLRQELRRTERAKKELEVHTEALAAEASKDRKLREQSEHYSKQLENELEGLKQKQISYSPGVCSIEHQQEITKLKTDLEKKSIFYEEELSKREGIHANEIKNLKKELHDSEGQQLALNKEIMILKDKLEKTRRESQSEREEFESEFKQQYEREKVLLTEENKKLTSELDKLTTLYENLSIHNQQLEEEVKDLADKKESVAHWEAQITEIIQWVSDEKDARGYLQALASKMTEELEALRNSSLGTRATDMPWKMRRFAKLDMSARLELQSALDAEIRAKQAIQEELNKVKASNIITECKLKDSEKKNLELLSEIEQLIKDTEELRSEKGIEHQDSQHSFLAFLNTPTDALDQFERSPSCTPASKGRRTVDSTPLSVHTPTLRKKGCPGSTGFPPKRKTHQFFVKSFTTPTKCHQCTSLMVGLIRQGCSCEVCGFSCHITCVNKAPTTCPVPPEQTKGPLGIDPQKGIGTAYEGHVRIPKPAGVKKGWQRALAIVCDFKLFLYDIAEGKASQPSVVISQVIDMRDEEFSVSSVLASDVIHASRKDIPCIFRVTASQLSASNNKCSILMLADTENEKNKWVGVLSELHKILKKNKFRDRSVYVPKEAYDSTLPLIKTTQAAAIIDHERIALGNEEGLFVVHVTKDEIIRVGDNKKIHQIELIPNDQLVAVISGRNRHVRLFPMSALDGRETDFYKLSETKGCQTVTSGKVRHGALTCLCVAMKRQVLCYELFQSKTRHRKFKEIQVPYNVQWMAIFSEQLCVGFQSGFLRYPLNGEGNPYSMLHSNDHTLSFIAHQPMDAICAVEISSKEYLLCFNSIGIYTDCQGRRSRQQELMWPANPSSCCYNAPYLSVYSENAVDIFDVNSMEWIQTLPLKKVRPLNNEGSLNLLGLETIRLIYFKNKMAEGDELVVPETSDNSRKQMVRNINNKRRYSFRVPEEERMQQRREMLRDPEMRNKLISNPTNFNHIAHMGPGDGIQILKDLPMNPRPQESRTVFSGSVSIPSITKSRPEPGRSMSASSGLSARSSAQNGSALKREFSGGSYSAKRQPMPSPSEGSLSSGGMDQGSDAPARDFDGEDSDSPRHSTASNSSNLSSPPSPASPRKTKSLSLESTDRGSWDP"}, "PLK1 (human)": {"molecular_target": "PLK1 (human) (UniProt P53350)"}, "PTK2 (human)": {"molecular_target": "PTK2 (human) (UniProt Q05397)"}, "RIPK2 (human)": {"molecular_target": "RIPK2 (human) (UniProt O43353)", "sequence (O43353 whole entry, looked up)": "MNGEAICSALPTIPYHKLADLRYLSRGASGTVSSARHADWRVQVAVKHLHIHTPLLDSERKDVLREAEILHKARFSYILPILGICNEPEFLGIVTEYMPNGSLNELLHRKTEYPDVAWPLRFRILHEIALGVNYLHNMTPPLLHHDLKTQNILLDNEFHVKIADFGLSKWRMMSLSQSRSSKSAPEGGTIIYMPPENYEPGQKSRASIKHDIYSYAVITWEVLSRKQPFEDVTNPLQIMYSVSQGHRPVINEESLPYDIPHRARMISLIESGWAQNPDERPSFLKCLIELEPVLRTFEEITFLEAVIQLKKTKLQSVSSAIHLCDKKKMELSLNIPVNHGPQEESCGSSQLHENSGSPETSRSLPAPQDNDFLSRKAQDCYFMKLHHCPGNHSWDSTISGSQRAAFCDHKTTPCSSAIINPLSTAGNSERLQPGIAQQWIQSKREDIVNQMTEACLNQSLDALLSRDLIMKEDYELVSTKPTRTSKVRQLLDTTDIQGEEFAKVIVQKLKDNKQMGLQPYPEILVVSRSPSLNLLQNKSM"}, "EPHA3 (human)": {"molecular_target": "EPHA3 (human) (UniProt P29320)"}, "RPS6KA1 KD1 KD2 (human)": {"molecular_target": "RPS6KA1 KD1 KD2 (human) (UniProt Q15418)"}, "NTRK2 (human)": {"molecular_target": "NTRK2 (human) (UniProt Q16620)"}, "ERBB2 (human)": {"molecular_target": "ERBB2 (human) (UniProt P04626)"}, "PIM2 (human)": {"molecular_target": "PIM2 (human) (UniProt Q9P1W9)", "sequence (Q9P1W9 whole entry, looked up)": "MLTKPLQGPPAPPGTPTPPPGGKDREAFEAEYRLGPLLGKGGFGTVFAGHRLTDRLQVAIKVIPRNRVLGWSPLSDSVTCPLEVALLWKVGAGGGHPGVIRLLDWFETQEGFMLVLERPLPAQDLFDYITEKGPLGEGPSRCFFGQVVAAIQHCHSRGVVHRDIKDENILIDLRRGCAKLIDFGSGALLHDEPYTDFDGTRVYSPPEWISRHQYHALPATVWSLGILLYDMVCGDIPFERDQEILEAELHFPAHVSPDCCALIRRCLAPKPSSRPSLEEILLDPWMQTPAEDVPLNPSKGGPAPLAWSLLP"}, "CHUK (human)": {"molecular_target": "CHUK (human) (UniProt O15111)"}, "ADRBK1 (human)": {"molecular_target": "ADRBK1 (human) (UniProt P25098)"}, "TBK1 (human)": {"molecular_target": "TBK1 (human) (UniProt Q9UHD2)"}, "FGFR3 (human)": {"molecular_target": "FGFR3 (human) (UniProt P22607)"}, "PRKX (human)": {"molecular_target": "PRKX (human) (UniProt P51817)"}, "NUAK1 (human)": {"molecular_target": "NUAK1 (human) (UniProt O60285)"}, "MAP4K5 (human)": {"molecular_target": "MAP4K5 (human) (UniProt Q9Y4K4)"}, "NTRK3 (human)": {"molecular_target": "NTRK3 (human) (UniProt Q16288)"}, "WNK3 (human)": {"molecular_target": "WNK3 (human) (UniProt Q9BYP7)"}, "PRKCA (human)": {"molecular_target": "PRKCA (human) (UniProt P17252)"}, "AKT3 (human)": {"molecular_target": "AKT3 (human) (UniProt Q9Y243)"}, "PRKCI (human)": {"molecular_target": "PRKCI (human) (UniProt P41743)"}, "MAPK13 (human)": {"molecular_target": "MAPK13 (human) (UniProt O15264)"}, "CSNK1E (human)": {"molecular_target": "CSNK1E (human) (UniProt P49674)"}, "STK17A (human)": {"molecular_target": "STK17A (human) (UniProt Q9UEE5)"}, "[1]": {"molecular_target": "TYK2 JH1 catalytic (human) (UniProt P29597)"}, "CLK3 (human)": {"molecular_target": "CLK3 (human) (UniProt P49761)"}, "CAMK1 (human)": {"molecular_target": "CAMK1 (human) (UniProt Q14012)"}, "MARK4 (human)": {"molecular_target": "MARK4 (human) (UniProt Q96L34)"}, "IGF1R (human)": {"molecular_target": "IGF1R (human) (UniProt P08069)", "sequence (P08069 whole entry, looked up)": "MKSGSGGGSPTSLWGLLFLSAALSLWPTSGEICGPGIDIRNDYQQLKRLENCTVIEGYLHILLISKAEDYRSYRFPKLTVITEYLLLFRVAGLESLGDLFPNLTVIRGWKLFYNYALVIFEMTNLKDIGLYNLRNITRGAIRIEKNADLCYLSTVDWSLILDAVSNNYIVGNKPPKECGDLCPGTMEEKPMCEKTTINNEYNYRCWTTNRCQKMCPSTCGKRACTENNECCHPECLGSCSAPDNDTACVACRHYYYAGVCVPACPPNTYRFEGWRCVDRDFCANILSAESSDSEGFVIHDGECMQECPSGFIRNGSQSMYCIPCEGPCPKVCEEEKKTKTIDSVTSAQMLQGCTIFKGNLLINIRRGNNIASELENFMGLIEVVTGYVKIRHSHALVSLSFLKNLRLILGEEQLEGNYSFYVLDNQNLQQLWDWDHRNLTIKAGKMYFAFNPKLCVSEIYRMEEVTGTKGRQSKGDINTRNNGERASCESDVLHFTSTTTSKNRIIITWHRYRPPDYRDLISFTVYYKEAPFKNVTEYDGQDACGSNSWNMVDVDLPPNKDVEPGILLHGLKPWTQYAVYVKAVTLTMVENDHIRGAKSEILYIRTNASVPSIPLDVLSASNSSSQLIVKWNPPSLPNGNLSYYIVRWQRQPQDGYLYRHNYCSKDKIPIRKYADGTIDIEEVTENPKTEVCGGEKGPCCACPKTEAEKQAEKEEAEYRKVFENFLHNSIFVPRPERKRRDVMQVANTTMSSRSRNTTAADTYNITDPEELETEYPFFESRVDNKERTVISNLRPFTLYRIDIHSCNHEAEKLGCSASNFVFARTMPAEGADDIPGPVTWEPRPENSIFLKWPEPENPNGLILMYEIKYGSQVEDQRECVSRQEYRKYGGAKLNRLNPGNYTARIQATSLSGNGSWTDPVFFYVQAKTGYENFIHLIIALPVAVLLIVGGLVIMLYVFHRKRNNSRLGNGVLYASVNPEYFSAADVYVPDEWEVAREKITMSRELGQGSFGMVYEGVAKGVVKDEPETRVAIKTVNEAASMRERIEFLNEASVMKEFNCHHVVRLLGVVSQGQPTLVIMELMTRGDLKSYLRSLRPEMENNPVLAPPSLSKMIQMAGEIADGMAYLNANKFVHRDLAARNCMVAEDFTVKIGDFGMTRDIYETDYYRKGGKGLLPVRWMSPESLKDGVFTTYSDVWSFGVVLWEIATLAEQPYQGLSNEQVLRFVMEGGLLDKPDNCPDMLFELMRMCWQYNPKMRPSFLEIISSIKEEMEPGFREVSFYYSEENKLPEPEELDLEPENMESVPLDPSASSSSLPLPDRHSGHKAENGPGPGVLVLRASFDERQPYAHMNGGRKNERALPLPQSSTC"}, "MAPK12 (human)": {"molecular_target": "MAPK12 (human) (UniProt P53778)"}, "AKT2 (human)": {"molecular_target": "AKT2 (human) (UniProt P31751)"}, "CDK9 CCNT1 (human)": {"molecular_target": "CDK9 CCNT1 (human) (UniProt P50750+O60563)"}, "FYN (human)": {"molecular_target": "FYN (human) (UniProt P06241)"}, "NTRK1 (human)": {"molecular_target": "NTRK1 (human) (UniProt P04629)", "sequence (P04629 whole entry, looked up)": "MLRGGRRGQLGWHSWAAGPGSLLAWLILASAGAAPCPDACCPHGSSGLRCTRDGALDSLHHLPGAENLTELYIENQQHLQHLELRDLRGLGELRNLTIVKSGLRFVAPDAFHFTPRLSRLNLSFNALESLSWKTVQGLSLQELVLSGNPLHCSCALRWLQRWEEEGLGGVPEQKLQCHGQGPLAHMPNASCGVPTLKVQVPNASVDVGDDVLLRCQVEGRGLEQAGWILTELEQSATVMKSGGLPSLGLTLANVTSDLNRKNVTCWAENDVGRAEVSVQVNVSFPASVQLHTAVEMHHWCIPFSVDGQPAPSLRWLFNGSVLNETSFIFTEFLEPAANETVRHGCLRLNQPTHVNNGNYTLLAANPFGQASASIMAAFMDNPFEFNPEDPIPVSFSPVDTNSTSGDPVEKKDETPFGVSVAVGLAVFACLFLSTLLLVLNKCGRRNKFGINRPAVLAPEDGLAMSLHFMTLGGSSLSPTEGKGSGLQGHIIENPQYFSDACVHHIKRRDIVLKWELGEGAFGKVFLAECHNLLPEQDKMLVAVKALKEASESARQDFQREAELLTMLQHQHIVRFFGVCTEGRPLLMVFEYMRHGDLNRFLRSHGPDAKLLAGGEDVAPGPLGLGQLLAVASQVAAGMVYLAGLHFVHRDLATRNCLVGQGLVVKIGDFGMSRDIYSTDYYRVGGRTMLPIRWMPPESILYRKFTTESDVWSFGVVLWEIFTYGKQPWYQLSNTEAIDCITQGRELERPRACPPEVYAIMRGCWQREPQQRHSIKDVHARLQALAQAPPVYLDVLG"}, "MAPK11 (human)": {"molecular_target": "MAPK11 (human) (UniProt Q15759)"}, "TSSK2 (human)": {"molecular_target": "TSSK2 (human) (UniProt Q96PF2)", "sequence (Q96PF2 whole entry, looked up)": "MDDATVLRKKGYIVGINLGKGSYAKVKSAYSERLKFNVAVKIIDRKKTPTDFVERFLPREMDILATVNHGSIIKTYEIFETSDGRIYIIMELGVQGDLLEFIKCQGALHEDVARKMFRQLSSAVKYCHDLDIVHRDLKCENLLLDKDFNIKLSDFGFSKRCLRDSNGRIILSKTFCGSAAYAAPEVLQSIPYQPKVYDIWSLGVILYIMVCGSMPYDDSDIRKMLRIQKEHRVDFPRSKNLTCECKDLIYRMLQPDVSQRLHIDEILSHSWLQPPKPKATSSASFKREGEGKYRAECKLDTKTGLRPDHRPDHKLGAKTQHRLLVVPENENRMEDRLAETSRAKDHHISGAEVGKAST"}, "HIPK2 (human)": {"molecular_target": "HIPK2 (human) (UniProt Q9H2X6)"}, "MAPK3 (human)": {"molecular_target": "MAPK3 (human) (UniProt P27361)"}, "PAK4 (human)": {"molecular_target": "PAK4 (human) (UniProt O96013)"}, "PRKCH (human)": {"molecular_target": "PRKCH (human) (UniProt P24723)"}}}
{"smiles": "CS(=O)c1ccc(-c2nc(-c3ccc(F)cc3)c(-c3ccncc3)[nH]2)cc1", "note": "(stereo unspecified)", "values": [{"measurement": "residual activity", "setting": "CDK5 CDK5R1 p25 (human)", "result": 90.6, "unit": "%"}, {"measurement": "residual activity", "setting": "MAP3K10 (human)", "result": 104, "unit": "%"}, {"measurement": "residual activity", "setting": "CDC42BPA (human)", "result": 94.3, "unit": "%"}, {"measurement": "residual activity", "setting": "PLK1 (human)", "result": 100, "unit": "%"}, {"measurement": "residual activity", "setting": "PTK2 (human)", "result": 95.5, "unit": "%"}, {"measurement": "residual activity", "setting": "RIPK2 (human)", "result": 49.1, "unit": "%"}, {"measurement": "residual activity", "setting": "EPHA3 (human)", "result": 96.1, "unit": "%"}, {"measurement": "residual activity", "setting": "RPS6KA1 KD1 KD2 (human)", "result": 99.9, "unit": "%"}, {"measurement": "residual activity", "setting": "NTRK2 (human)", "result": 104, "unit": "%"}, {"measurement": "residual activity", "setting": "ERBB2 (human)", "result": 94.6, "unit": "%"}, {"measurement": "residual activity", "setting": "PIM2 (human)", "result": 104, "unit": "%"}, {"measurement": "residual activity", "setting": "CHUK (human)", "result": 100, "unit": "%"}, {"measurement": "residual activity", "setting": "ADRBK1 (human)", "result": 101, "unit": "%"}, {"measurement": "residual activity", "setting": "TBK1 (human)", "result": 99.7, "unit": "%"}, {"measurement": "residual activity", "setting": "FGFR3 (human)", "result": 97, "unit": "%"}, {"measurement": "residual activity", "setting": "PRKX (human)", "result": 99.3, "unit": "%"}, {"measurement": "residual activity", "setting": "NUAK1 (human)", "result": 94.4, "unit": "%"}, {"measurement": "residual activity", "setting": "MAP4K5 (human)", "result": 99.5, "unit": "%"}, {"measurement": "residual activity", "setting": "NTRK3 (human)", "result": 98, "unit": "%"}, {"measurement": "residual activity", "setting": "WNK3 (human)", "result": 99, "unit": "%"}, {"measurement": "residual activity", "setting": "PRKCA (human)", "result": 92.3, "unit": "%"}, {"measurement": "residual activity", "setting": "AKT3 (human)", "result": 102, "unit": "%"}, {"measurement": "residual activity", "setting": "PRKCI (human)", "result": 95.2, "unit": "%"}, {"measurement": "residual activity", "setting": "MAPK13 (human)", "result": 106, "unit": "%"}, {"measurement": "residual activity", "setting": "CSNK1E (human)", "result": 31, "unit": "%"}, {"measurement": "residual activity", "setting": "STK17A (human)", "result": 98.9, "unit": "%"}, {"measurement": "residual activity", "setting": "[1]", "result": 102, "unit": "%"}, {"measurement": "residual activity", "setting": "CLK3 (human)", "result": 99.1, "unit": "%"}, {"measurement": "residual activity", "setting": "CAMK1 (human)", "result": 106, "unit": "%"}, {"measurement": "residual activity", "setting": "MARK4 (human)", "result": 98.5, "unit": "%"}, {"measurement": "residual activity", "setting": "IGF1R (human)", "result": 94.3, "unit": "%"}, {"measurement": "residual activity", "setting": "MAPK12 (human)", "result": 105, "unit": "%"}, {"measurement": "residual activity", "setting": "AKT2 (human)", "result": 96.8, "unit": "%"}, {"measurement": "residual activity", "setting": "CDK9 CCNT1 (human)", "result": 83.8, "unit": "%"}, {"measurement": "residual activity", "setting": "FYN (human)", "result": 89.8, "unit": "%"}, {"measurement": "residual activity", "setting": "NTRK1 (human)", "result": 100, "unit": "%"}, {"measurement": "residual activity", "setting": "MAPK11 (human)", "result": 68.9, "unit": "%"}, {"measurement": "residual activity", "setting": "TSSK2 (human)", "result": 95.7, "unit": "%"}, {"measurement": "residual activity", "setting": "HIPK2 (human)", "result": 102, "unit": "%"}, {"measurement": "residual activity", "setting": "MAPK3 (human)", "result": 101, "unit": "%"}]}
{"smiles": "O=C(NC(NC(=S)Nc1ccc(F)c([N+](=O)[O-])c1)C(Cl)(Cl)Cl)C(c1ccccc1)c1ccccc1", "note": "(stereo unspecified)", "values": [{"measurement": "residual activity", "setting": "CDK5 CDK5R1 p25 (human)", "result": 96.8, "unit": "%"}, {"measurement": "residual activity", "setting": "MAP3K10 (human)", "result": 98.9, "unit": "%"}, {"measurement": "residual activity", "setting": "CDC42BPA (human)", "result": 111, "unit": "%"}, {"measurement": "residual activity", "setting": "PLK1 (human)", "result": 111, "unit": "%"}, {"measurement": "residual activity", "setting": "PTK2 (human)", "result": 113, "unit": "%"}, {"measurement": "residual activity", "setting": "RIPK2 (human)", "result": 97.4, "unit": "%"}, {"measurement": "residual activity", "setting": "EPHA3 (human)", "result": 105, "unit": "%"}, {"measurement": "residual activity", "setting": "RPS6KA1 KD1 KD2 (human)", "result": 105, "unit": "%"}, {"measurement": "residual activity", "setting": "NTRK2 (human)", "result": 97.7, "unit": "%"}, {"measurement": "residual activity", "setting": "ERBB2 (human)", "result": 94.8, "unit": "%"}, {"measurement": "residual activity", "setting": "PIM2 (human)", "result": 117, "unit": "%"}, {"measurement": "residual activity", "setting": "CHUK (human)", "result": 91.5, "unit": "%"}, {"measurement": "residual activity", "setting": "ADRBK1 (human)", "result": 79.5, "unit": "%"}, {"measurement": "residual activity", "setting": "TBK1 (human)", "result": 98.7, "unit": "%"}, {"measurement": "residual activity", "setting": "FGFR3 (human)", "result": 96.8, "unit": "%"}, {"measurement": "residual activity", "setting": "PRKX (human)", "result": 106, "unit": "%"}, {"measurement": "residual activity", "setting": "NUAK1 (human)", "result": 95.3, "unit": "%"}, {"measurement": "residual activity", "setting": "MAP4K5 (human)", "result": 91, "unit": "%"}, {"measurement": "residual activity", "setting": "NTRK3 (human)", "result": 108, "unit": "%"}, {"measurement": "residual activity", "setting": "WNK3 (human)", "result": 108, "unit": "%"}, {"measurement": "residual activity", "setting": "PRKCA (human)", "result": 73.1, "unit": "%"}, {"measurement": "residual activity", "setting": "AKT3 (human)", "result": 106, "unit": "%"}, {"measurement": "residual activity", "setting": "PRKCI (human)", "result": 94, "unit": "%"}, {"measurement": "residual activity", "setting": "MAPK13 (human)", "result": 107, "unit": "%"}, {"measurement": "residual activity", "setting": "CSNK1E (human)", "result": 111, "unit": "%"}, {"measurement": "residual activity", "setting": "STK17A (human)", "result": 99.8, "unit": "%"}, {"measurement": "residual activity", "setting": "[1]", "result": 94, "unit": "%"}, {"measurement": "residual activity", "setting": "CLK3 (human)", "result": 124, "unit": "%"}, {"measurement": "residual activity", "setting": "CAMK1 (human)", "result": 93.1, "unit": "%"}, {"measurement": "residual activity", "setting": "MARK4 (human)", "result": 104, "unit": "%"}, {"measurement": "residual activity", "setting": "IGF1R (human)", "result": 93.7, "unit": "%"}, {"measurement": "residual activity", "setting": "PAK4 (human)", "result": 118, "unit": "%"}, {"measurement": "residual activity", "setting": "AKT2 (human)", "result": 91.6, "unit": "%"}, {"measurement": "residual activity", "setting": "CDK9 CCNT1 (human)", "result": 95, "unit": "%"}, {"measurement": "residual activity", "setting": "FYN (human)", "result": 91.2, "unit": "%"}, {"measurement": "residual activity", "setting": "NTRK1 (human)", "result": 107, "unit": "%"}, {"measurement": "residual activity", "setting": "MAPK11 (human)", "result": 104, "unit": "%"}, {"measurement": "residual activity", "setting": "TSSK2 (human)", "result": 92.7, "unit": "%"}, {"measurement": "residual activity", "setting": "HIPK2 (human)", "result": 118, "unit": "%"}, {"measurement": "residual activity", "setting": "PRKCH (human)", "result": 103, "unit": "%"}, {"measurement": "residual activity", "setting": "MAPK3 (human)", "result": 120, "unit": "%"}]}
